From the NIST ThermoML archive (doi:10.1021/je049973v)

Conditions: Liquid; for speed of sound: Pulse-echo method; for mass density: Vibrating tube method

CCCCCCCCCCCCCCCCCCc1ccccc1 [octadecylbenzene]
Conditions | mass density [kg/m3] | speed of sound [m/s]
313.15 K, 100 kPa | 840.55 | 1392.9
313.15 K, 5000 kPa | 843.37 | –
313.15 K, 10000 kPa | 846.27 | 1439.6
313.15 K, 15000 kPa | 849.15 | –
313.15 K, 20000 kPa | – | 1484.1
313.15 K, 25000 kPa | 854.46 | –
313.15 K, 30000 kPa | 856.89 | 1525.8
313.15 K, 35000 kPa | 859.36 | –
313.15 K, 40000 kPa | 861.48 | 1564.8
313.15 K, 45000 kPa | 864.12 | –
313.15 K, 50000 kPa | 866.37 | 1602.4
313.15 K, 55000 kPa | 868.59 | –
313.15 K, 60000 kPa | 870.16 | 1638.1
313.15 K, 70000 kPa | – | 1672.1
313.15 K, 80000 kPa | – | 1704.7
323.15 K, 100 kPa | 833.94 | 1357.8
323.15 K, 5000 kPa | 836.91 | –
323.15 K, 10000 kPa | 840.02 | 1406.8
323.15 K, 15000 kPa | 842.88 | –
323.15 K, 20000 kPa | – | 1452.4
323.15 K, 25000 kPa | 848.32 | –
323.15 K, 30000 kPa | 850.96 | 1495.5
323.15 K, 35000 kPa | 853.46 | –
323.15 K, 40000 kPa | 856 | 1535.6
323.15 K, 45000 kPa | 858.41 | –
323.15 K, 50000 kPa | 860.91 | 1574
323.15 K, 55000 kPa | 863.12 | –
323.15 K, 60000 kPa | 865.36 | 1610.3
323.15 K, 70000 kPa | – | 1645.1
323.15 K, 80000 kPa | – | 1678.7
323.15 K, 90000 kPa | – | 1710.4
323.15 K, 100000 kPa | – | 1741.3
323.15 K, 110000 kPa | – | 1771.2
323.15 K, 120000 kPa | – | 1799.2
333.15 K, 100 kPa | 827.32 | 1325.5
333.15 K, 5000 kPa | 830.4 | –
333.15 K, 10000 kPa | 833.56 | 1374.8
333.15 K, 15000 kPa | 836.59 | –
333.15 K, 20000 kPa | – | 1422.6
333.15 K, 25000 kPa | 842.3 | –
333.15 K, 30000 kPa | 845.04 | 1466.1
333.15 K, 35000 kPa | 847.71 | –
333.15 K, 40000 kPa | 850.3 | 1507.5
333.15 K, 45000 kPa | 852.76 | –
333.15 K, 50000 kPa | 855.26 | 1546.7
333.15 K, 55000 kPa | 857.46 | –
333.15 K, 60000 kPa | 859.86 | 1583.5
333.15 K, 70000 kPa | – | 1619.1
333.15 K, 80000 kPa | – | 1652.8
333.15 K, 90000 kPa | – | 1685.7
333.15 K, 100000 kPa | – | 1717
333.15 K, 110000 kPa | – | 1747.3
333.15 K, 120000 kPa | – | 1775.7
333.15 K, 130000 kPa | – | 1803.9
333.15 K, 140000 kPa | – | 1830.9
333.15 K, 150000 kPa | – | 1857.5
343.15 K, 100 kPa | 820.78 | 1292.7
343.15 K, 5000 kPa | 824.1 | –
343.15 K, 10000 kPa | 827.33 | 1344.1
343.15 K, 15000 kPa | 830.48 | –
343.15 K, 20000 kPa | – | 1392.8
343.15 K, 25000 kPa | 836.54 | –
343.15 K, 30000 kPa | 839.35 | 1437.7
343.15 K, 35000 kPa | 841.97 | –
343.15 K, 40000 kPa | 844.62 | 1480.2
343.15 K, 45000 kPa | 847.32 | –
343.15 K, 50000 kPa | 849.82 | 1519.9
343.15 K, 55000 kPa | 852.25 | –
343.15 K, 60000 kPa | 854.6 | 1558.1
343.15 K, 70000 kPa | – | 1594.2
343.15 K, 80000 kPa | – | 1628.6
343.15 K, 90000 kPa | – | 1661.5
343.15 K, 100000 kPa | – | 1693.1
343.15 K, 110000 kPa | – | 1723.6
343.15 K, 120000 kPa | – | 1753.5
343.15 K, 130000 kPa | – | 1781.9
343.15 K, 140000 kPa | – | 1809.4
343.15 K, 150000 kPa | – | 1836.3
353.15 K, 100 kPa | 814.1 | 1260.7
353.15 K, 5000 kPa | 817.72 | –
353.15 K, 10000 kPa | 821.14 | 1313.4
353.15 K, 15000 kPa | 824.47 | –
353.15 K, 20000 kPa | – | 1364.1
353.15 K, 25000 kPa | 830.64 | –
353.15 K, 30000 kPa | 833.58 | 1410
353.15 K, 35000 kPa | 836.52 | –
353.15 K, 40000 kPa | 839.12 | 1454
353.15 K, 45000 kPa | 841.72 | –
353.15 K, 50000 kPa | 844.35 | 1494.4
353.15 K, 55000 kPa | 846.91 | –
353.15 K, 60000 kPa | 849.39 | 1532.6
353.15 K, 70000 kPa | – | 1569.2
353.15 K, 80000 kPa | – | 1604.3
353.15 K, 90000 kPa | – | 1638.2
353.15 K, 100000 kPa | – | 1670.3
353.15 K, 110000 kPa | – | 1701.4
353.15 K, 120000 kPa | – | 1731.3
353.15 K, 130000 kPa | – | 1759.9
353.15 K, 140000 kPa | – | 1788.8
353.15 K, 150000 kPa | – | 1815.1
363.15 K, 100 kPa | 807.7 | 1229.5
363.15 K, 5000 kPa | 811.19 | –
363.15 K, 10000 kPa | 814.87 | 1284.8
363.15 K, 15000 kPa | 818.14 | –
363.15 K, 20000 kPa | – | 1334.9
363.15 K, 25000 kPa | 824.7 | –
363.15 K, 30000 kPa | 827.83 | 1382.7
363.15 K, 35000 kPa | 830.62 | –
363.15 K, 40000 kPa | 833.38 | 1427.1
363.15 K, 45000 kPa | 836.17 | –
363.15 K, 50000 kPa | 838.78 | 1469.1
363.15 K, 55000 kPa | 841.42 | –
363.15 K, 60000 kPa | 843.92 | 1508.3
363.15 K, 70000 kPa | – | 1545.7
363.15 K, 80000 kPa | – | 1581.7
363.15 K, 90000 kPa | – | 1615.7
363.15 K, 100000 kPa | – | 1648.3
363.15 K, 110000 kPa | – | 1679.8
363.15 K, 120000 kPa | – | 1710
363.15 K, 130000 kPa | – | 1739.2
363.15 K, 140000 kPa | – | 1767.5
363.15 K, 150000 kPa | – | 1795.5
373.15 K, 100 kPa | 800.89 | 1198.7
373.15 K, 5000 kPa | 804.86 | –
373.15 K, 10000 kPa | 808.59 | 1255.2
373.15 K, 15000 kPa | 812.16 | –
373.15 K, 20000 kPa | – | 1308.3
373.15 K, 25000 kPa | 818.84 | –
373.15 K, 30000 kPa | 821.97 | 1356.6
373.15 K, 35000 kPa | 825.09 | –
373.15 K, 40000 kPa | 828 | 1401.7
373.15 K, 45000 kPa | 830.8 | –
373.15 K, 50000 kPa | 833.6 | 1444.5
373.15 K, 55000 kPa | 836.29 | –
373.15 K, 60000 kPa | 838.88 | 1484.7
373.15 K, 70000 kPa | – | 1522
373.15 K, 80000 kPa | – | 1558.6
373.15 K, 90000 kPa | – | 1592.9
373.15 K, 100000 kPa | – | 1626.3
373.15 K, 110000 kPa | – | 1657.9
373.15 K, 120000 kPa | – | 1688.5
373.15 K, 130000 kPa | – | 1718.7
373.15 K, 140000 kPa | – | 1746.6
373.15 K, 150000 kPa | – | 1774.6
